From patent US11524966B1 (Valo Early Discovery, Inc., priority 2017, dated 2022)

Each compound was assayed against T1, USP25 (USP25-His6, Boston Biochem E-546) (Homo sapiens, UniProt Q9UHP3) (assay: Ubiquitin-Rhodamine 110 Assay for USP25 Activity, Example A-2). Details: Ubiquitin-Rhodamine 110 assay, Example A-2; read-out: USP25 A-2 IC50 range.
T1 construct: His6; purchased Boston Biochem E-546
T1 sequence (Q9UHP3 1-1055): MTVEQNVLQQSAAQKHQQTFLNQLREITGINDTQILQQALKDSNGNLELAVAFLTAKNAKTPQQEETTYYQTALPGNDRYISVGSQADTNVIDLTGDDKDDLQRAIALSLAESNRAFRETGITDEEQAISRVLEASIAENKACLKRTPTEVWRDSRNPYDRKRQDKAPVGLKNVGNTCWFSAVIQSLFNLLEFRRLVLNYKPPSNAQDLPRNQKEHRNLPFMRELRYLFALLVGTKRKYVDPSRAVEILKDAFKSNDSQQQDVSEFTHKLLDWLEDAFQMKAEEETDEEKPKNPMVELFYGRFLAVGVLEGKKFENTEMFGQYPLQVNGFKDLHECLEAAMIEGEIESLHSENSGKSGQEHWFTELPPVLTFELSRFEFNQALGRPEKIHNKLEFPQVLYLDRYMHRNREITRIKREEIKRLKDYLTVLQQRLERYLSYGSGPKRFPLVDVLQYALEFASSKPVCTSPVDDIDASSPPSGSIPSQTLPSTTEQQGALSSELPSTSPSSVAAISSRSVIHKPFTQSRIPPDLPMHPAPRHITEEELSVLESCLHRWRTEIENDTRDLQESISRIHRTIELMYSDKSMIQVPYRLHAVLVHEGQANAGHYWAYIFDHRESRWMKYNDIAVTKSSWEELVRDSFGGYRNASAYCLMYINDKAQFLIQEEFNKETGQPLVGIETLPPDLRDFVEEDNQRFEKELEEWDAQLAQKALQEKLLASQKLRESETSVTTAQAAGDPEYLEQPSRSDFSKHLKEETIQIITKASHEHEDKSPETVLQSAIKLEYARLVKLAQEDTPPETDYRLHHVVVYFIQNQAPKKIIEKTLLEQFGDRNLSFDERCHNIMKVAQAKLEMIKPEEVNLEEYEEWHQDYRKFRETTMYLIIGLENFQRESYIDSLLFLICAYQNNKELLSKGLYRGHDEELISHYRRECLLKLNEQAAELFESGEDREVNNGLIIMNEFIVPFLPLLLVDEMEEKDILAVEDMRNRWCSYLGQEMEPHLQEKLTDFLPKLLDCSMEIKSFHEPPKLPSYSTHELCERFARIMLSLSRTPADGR
Type: biochemical
Summary of the method: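 Steps: compound dilutions (top 25 μM, 3-fold, 10 points) were preincubated 30 min with 75 pM USP25-His6; 25 nM Ub-Rh110 substrate was added under initial-velocity conditions; after 45 min at room temperature, 10 mM citric acid stopped the reaction before fluorescence reading.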

Row | Structure (SMILES) | IC50
1 | CO[C@H]1CN(c2cc(F)c3c(c2)OC[C@H](NC(=O)c2sc4nc(C)ccc4c2N)C3)C[C@H]1N [Example 146] | 0.2 to 2 µM
2 | Cc1ccc2c(N)c(C(=O)N[C@H]3CCc4cc(N5CC6CCC(C5)N6)ccc4C3)oc2n1 [Example 171, 3-amino-N-[(2S)-6-{3,8-diazabicyclo[3.2.1]octan-3-yl]-1,2,3,4-tetrahydronaphthalen-2-yl]-6-methylfuro[2,3-b]pyridine-2-carboxamide] | > 2 µM
3 | CO[C@H]1CN(c2ccc3c(c2)OC[C@H](NC(=O)c2sc4nc(C)sc4c2N)C3)C[C@@H]1N [Example 118, 6-amino-N-[(3R)-7-[(3S,4S)-3-amino-4-methoxypyrrolidin-1-yl]-3,4-dihydro-2H-1-benzopyran-3-yl]-2-methylthieno[2,3-d][1,3]thiazole-5-carboxamide] | 0.2 to 2 µM
4 | Cc1cc(C)c2c(N)c(C(=O)N[C@H]3COc4cc(N5CCNCC5)c(F)c(F)c4C3)sc2n1 [Example 159, 3-amino-N-[(3R)-5,6-difluoro-7-(piperazin-1-yl)-3,4-dihydro-2H-1-benzopyran-3-yl]-4,6-dimethylthieno[2,3-b]pyridine-2-carboxamide] | > 2 µM
5 | Cc1cc(C)c2c(N)c(C(=O)N[C@@H]3COc4cc(N5CCNCC5)c(F)c(F)c4C3)sc2n1 [Example 160, 3-amino-N-[(3S)-5,6-difluoro-7-(piperazin-1-yl)-3,4-dihydro-2H-1-benzopyran-3-yl]-4,6-dimethylthieno[2,3-b]pyridine-2-carboxamide] | 0.2 to 2 µM
6 | Cc1ccc2c(N)c(C(=O)N[C@H]3COc4cc(N5CC[C@H]6CNC[C@H]65)ccc4C3)sc2n1 [Example 166, N-[(3R)-7-[(3aS,6aS)-octahydropyrrolo[2,3-c]pyrrol-1-yl]-3,4-dihydro-2H-1-benzopyran-3-yl]-3-amino-6-methylthieno[2,3-b]pyridine-2-carboxamide] | 0.05 to 0.2 µM
7 | CO[C@H]1CN(c2ccc3c(c2)OC[C@H](NC(=O)c2sc4nc(C)sc4c2N)C3)C[C@H]1N [Example 150] | 0.2 to 2 µM
8 | CCO[C@H]1CN(c2ccc3c(n2)CC[C@H](NC(=O)c2sc4nc(C)ccc4c2N)C3)C[C@@H]1N [Example 142, 3-amino-N-[(6S)-2-[(3S,4S)-3-amino-4-ethoxypyrrolidin-1-yl]-5,6,7,8-tetrahydroquinolin-6-yl]-6-methylthieno[2,3-b]pyridine-2-carboxamide] | > 2 µM
9 | Cc1ccc2c(N)c(C(=O)N[C@H]3CCc4cc(N5CC6CNCC(C5)O6)c(C#N)cc4C3)sc2n1 [Example 109, 3-amino-N-[(2S)-7-cyano-6-{9-oxa-3,7-diazabicyclo[3.3.1]nonan-3-yl}-1,2,3,4-tetrahydronaphthalen-2-yl]-6-methylthieno[2,3-b]pyridine-2-carboxamide] | 0.2 to 2 µM
10 | Cc1cnc2c(N)c(C(=O)N[C@H]3COc4c(F)c(N5CC6CCC(C5)N6)cc(F)c4C3)sc2n1 [Example 107, 7-amino-N-[(3R)-7-{3,8-diazabicyclo[3.2.1]octan-3-yl}-5,8-difluoro-3,4-dihydro-2H-1-benzopyran-3-yl]-3-methylthieno[2,3-b]pyrazine-6-carboxamide] | 0.001 to 0.05 µM
11 | Cc1ccc2c(N)c(C(=O)N[C@H]3COc4cc(N5C[C@@H]6NCCO[C@@H]6C5)ccc4C3)sc2n1 [Example 153, N-[(3R)-7-[(4aS,7aR)-octahydropyrrolo[3,4-b]morpholin-6-yl]-3,4-dihydro-2H-1-benzopyran-3-yl]-3-amino-6-methylthieno[2,3-b]pyridine-2-carboxamide] | 0.2 to 2 µM
12 | CCn1ccc2cc(C(=O)N[C@@H]3CCc4cc(N5C[C@H](OC)[C@@H](N)C5)cc(F)c4C3)nnc21 [Example 139, N-[(2R)-6-[(3S,4S)-3-amino-4-methoxypyrrolidin-1-yl]-8-fluoro-1,2,3,4-tetrahydronaphthalen-2-yl]-7-ethyl-7H-pyrrolo[2,3-c]pyridazine-3-carboxamide] | > 2 µM
13 | CO[C@@H]1CCN(c2ccc3c(c2)OC[C@H](NC(=O)c2sc4nc(C)ccc4c2N)C3)C[C@H]1N [Example 120, 3-amino-N-[(3R)-7-[(3R,4R)-3-amino-4-methoxypiperidin-1-yl]-3,4-dihydro-2H-1-benzopyran-3-yl]-6-methylthieno[2,3-b]pyridine-2-carboxamide] | 0.2 to 2 µM
14 | CO[C@@H]1CN(c2ccc3c(c2)CC[C@H](NC(=O)c2sc4nc(C)ccc4c2N)C3)C[C@@H]1N [Example 143, 3-amino-N-[(2S)-6-[(3S,4R)-3-amino-4-methoxypyrrolidin-1-yl]-1,2,3,4-tetrahydronaphthalen-2-yl]-6-methylthieno[2,3-b]pyridine-2-carboxamide] | 0.2 to 2 µM
15 | CO[C@@H]1CN(c2ccc3c(c2)OC[C@H](NC(=O)c2sc4nc(C)ccc4c2N)C3)CC[C@H]1N [Example 129, 3-amino-N-[(3R)-7-[(3R,4R)-4-amino-3-methoxypiperidin-1-yl]-3,4-dihydro-2H-1-benzopyran-3-yl]-6-methylthieno[2,3-b]pyridine-2-carboxamide] | 0.2 to 2 µM
16 | Cc1ccc2c(N)c(C(=O)N[C@H]3COc4cc([C@H]5C[C@H](N)C5)ccc4C3)sc2n1 [Example 124, 3-amino-6-methyl-N-[(3R)-7-[(1r,3r)-3-aminocyclobutyl]-3,4-dihydro-2H-1-benzopyran-3-yl]thieno[2,3-b]pyridine-2-carboxamide] | 0.2 to 2 µM
17 | COC[C@H]1CN(c2ccc3c(c2)OC[C@H](NC(=O)c2sc4nc(C)ccc4c2N)C3)C[C@@H]1N [Example 164, 3-amino-N-[(3R)-7-[(3R,4S)-3-amino-4-(methoxymethyl)pyrrolidin-1-yl]-3,4-dihydro-2H-1-benzopyran-3-yl]-6-methylthieno[2,3-b]pyridine-2-carboxamide] | 0.2 to 2 µM
18 | CO[C@H]1CN(c2cc3c(cc2F)C[C@@H](NC(=O)c2sc4nc(C)ccc4c2N)CO3)C[C@@H]1N [Example 94, 3-amino-N-[(3R)-7-[(3S,4S)-3-amino-4-methoxypyrrolidin-1-yl]-6-fluoro-3,4-dihydro-2H-1-benzopyran-3-yl]-6-methylthieno[2,3-b]pyridine-2-carboxamide] | 0.2 to 2 µM
19 | Cc1ccc2c(N)c(C(=O)N[C@H]3COc4cc(N5CC6CNCC(C5)O6)c(F)cc4C3)sc2n1 [Example 106, 3-amino-N-[(3R)-6-fluoro-7-{9-oxa-3,7-diazabicyclo[3.3.1]nonan-3-yl}-3,4-dihydro-2H-1-benzopyran-3-yl]-6-methylthieno[2,3-b]pyridine-2-carboxamide] | 0.05 to 0.2 µM
20 | Cc1ccc2c(N)c(C(=O)N[C@H]3COc4cc(N5CC6CCC(C5)N6)cc(F)c4C3)oc2n1 [Example 170, 3-amino-N-[(3R)-7-{3,8-diazabicyclo[3.2.1]octan-3-yl}-5-fluoro-3,4-dihydro-2H-1-benzopyran-3-yl]-6-methylfuro[2,3-b]pyridine-2-carboxamide] | > 2 µM
21 | CO[C@H]1CN(c2cc(F)c3c(c2C#N)OC[C@H](NC(=O)c2sc4nc(C)ccc4c2N)C3)C[C@@H]1N [Example 175, 3-amino-N-[(3R)-7-[(3S,4S)-3-amino-4-methoxypyrrolidin-1-yl]-8-cyano-5-fluoro-3,4-dihydro-2H-1-benzopyran-3-yl]-6-methylthieno[2,3-b]pyridine-2-carboxamide] | > 2 µM
22 | CCO[C@H]1CN(c2ccc3c(c2)OC[C@H](NC(=O)c2sc4nc(C)ccc4c2N)C3)C[C@@H]1N [Example 115, 3-amino-N-[(3R)-7-[(3S,4S)-3-amino-4-ethoxypyrrolidin-1-yl]-3,4-dihydro-2H-1-benzopyran-3-yl]-6-methylthieno[2,3-b]pyridine-2-carboxamide] | 0.2 to 2 µM
